In patent US20080249043A1, “Methods and Compositions Involving Protein Kinase C-Delta” (priority 2004, published 2008):
Converted amounts (≈) assume the structure as drawn. Residues, ends and D or L forms follow the SMILES beside them. *: point of attachment. Cbz = O=C(OCc1ccccc1)*; CH2F = FC*

Tests used:
PKC-δ = assay: Western blotting and subcellular fractionation for PKC-δ in U937 cells; format: cell-based
Procedure: U937 cells were treated with PMA (200 nM) or bortezomib (100 ng/ml) for 2 and 4 hours and cells were harvest for western blotting with antibody against PKC-δ. Same blot was probed with actin antibody as loading controls. […] U937 cells were treated with various concentrations of bortezomib and cells were subjected to subcellular fractionation to isolate mitochondria and cytoplasm. The whole cell lysates and fractions were analyzed with antibody against PKC-δ. […] U937 cells were treated with bortezomib (50 ng/ml) and/or caspase inhibitor BAF (30 μM) for 16 hours. Whole cell lysates were analyzed by western blotting with the PKC-δ antibody. […] Cells were treated with PMA (200 nM) for 6, 9 and 12 hours and subjected to subcellular fractionation. Western blot was probed with the PKC-δ antibody. M: mitochondria; C: cytoplasm.
(§1) U937 cells were grown in RPMI with 10% fetal bovine serum and L-glutamine. Bortezomib was from Millennium Pharmaceutical Corp. (Cambridge, Mass.). Rottlerin was from Sigma (St. Louis, Mo.). PKC-δ monoclonal antibody was from BD Transduction Laboratories (San Jose, Calif.). Boc-D(Ome)-FMK (BAF) and Go6976 were from Calbiochem (San Diego, Calif.). The TUNEL assay (terminal deoxynucleotidyltransferase-mediated dUTP-biotin nick end labeling) was from Roche (Switzerland). Subcellular fractionation and western blotting were performed as described (Chen Jet al. Mol Cancer Ther. 2002;1:961-967).

U937 cells = assay: TUNEL assay of apoptosis in U937 cells; format: cell-based; conditions: for TUNEL positivity, time course: 50 ng/ml bortezomib
Procedure: […] Cells were harvested and fixed for TUNEL assays. The percentages of the TUNEL positive cells are indicated.
as §1

HeLa cells [1] = assay: Apoptosis by PI staining and flow cytometry (subG1 population) in HeLa cells; format: cell-based; conditions: HeLa cells, 50 μM Z-VAD or 5 μM CsA 30 min, then AD198 16 h
Procedure: Cell culture, transfection and treatment—HeLa cells were cultured in Dulbecco's modified Eagle's medium (DMEM) containing 10% fetal bovine serum, 2 mM L-glutamine and penicillin (100 units/ml)-streptomycin (100 μg/ml) at 37° C. in a humidified 5% CO2 atmosphere. HeLa cells at 90% confluence were transfected with different mammalian expression vectors using Lipofectamin 2000 according to the manufacturer's protocol (Invitrogen Inc., Carlsbad, Calif.). At 24 h or 48 h after transfection, cells were treated with 1:100 dilution of AD198 that was dissolved in dimethyl sulfoxide (DMSO). For down-regulation of PLS3, HeLa cells at 50% confluence were transfected with siRNA against PLS3 or a scrambled control. At 48 h, cells were treated with AD198 for 16 h and harvested for flow cytometry. The whole cell lysate was extracted for analysis with Western blotting.
Analysis of apoptosis and determination of the transmembrane potential in mitochondria—Cell death was quantified by propidium iodide (PI) staining, followed by flow cytometry (Becton-Dickinson). HeLa cells were fixed in 0.5 ml cold 70% ethanol at −20° C. overnight. Cell pellet were resuspended in 300 μl of PBS containing 0.025 mg/ml PI, 0.05% Triton X-100, 0.1 mg/ml RNase A and incubated at room temperature for 30 min. The DNA content was evaluated by FACScan. For mitochondrial potential analysis, HeLa cells were incubated with MitoTracker Green at 37° C. for 20 min. The cells were collected and washed with PBS and analyzed by FACScan.
Cell culture, transfection, selection and treatment—HeLa cells were cultured in Dulbecco's modified Eagle's medium (DMEM) with 10% fetal bovine serum, 2 mM L-glutamine, 100 units/ml penicillin and 100 μg/ml streptomycin at 37° C. HeLa cells at 90% confluence were transfected with different mammalian expression vectors or siRNA using Lipofectamin 2000 according to the manufacturer's protocol (Invitrogen Inc., Carlsbad, Calif.). At 48 h after transfection, cells were incubated with 5 μM AD198 or dimethyl sulfoxide (DMSO) for 4 h or 16 h. After transfection, cells were selected with 1 mg/ml G418 for 2 wk. After corresponding mock-transfected cells were killed by G418, the concentration of G418 was decreased to 0.5 mg/ml and maintained for another 2 wk. The whole cell lysates or subcellular fractions were extracted for Western blotting analysis (Liu et al. (2003)).
Analysis of apoptosis—HeLa cells were harvested and fixed in 70% ethanol at −20° C. overnight. Cells were then washed with PBS and stained with 0.025 mg/ml propidium iodide (PI), 0.05% Triton X-100, 0.1 mg/ml RNase A for 30 min at room temperature. The DNA content was analyzed by FACScan (Becton-Dickinson), and the subG0/G1 population was used to represent apoptosis.

PLS3 = PLS3 threonine phosphorylation: Ni-bead pulldown of His-tagged PLS3, Western blot with PT antibody, HeLa cells; format: cell-based; conditions: HeLa cells, AD198 (5 μM) along with Z-VAD or CsA, 2 h
Procedure: Pulldown of His-tagged proteins from transfected HeLa cells—Transfected HeLa cells were washed with ice-cold phosphate-buffered saline (PBS) and incubated in the lysis buffer (50 mM NaH2PO4, 500 mM NaCl, 20 mM imidazole, 1% Triton X-100, 20 mM 2-mercaptoethanol, pH8.0) for 5 min and sonicated briefly on ice. The lysates were centrifuged at 10,000×g for 10 min at 4° C. The supernatant was saved and the protein concentration was measured with the Bio-Rad protein assay (Bio-Rad Laboratories, Hercules, Calif.) and adjusted to same concentrations for each sample. The supernatants were incubated with Ni-beads on a shaker for 2 h at 4° C. Beads were then pelleted at 800×g for 2 min at 4° C. and washed with ice-cold wash buffer (50 mM NaH2PO4, 500 mM NaCl, 20 mM imidazole, 1% Triton X-100, pH8.0) for five times. Beads were resuspended in SDS sample buffer and analyzed by Western blotting.
Western blot analysis—Equal amounts of protein were analyzed by 10% SDS-PAGE and electrotransferred to Immobilon-P membranes (Millipore Corporation, Bedford, Mass.). Monoclonal PKC-δ, PT, and β-actin and polyclonal VDAC antibodies were used at 1:1,000 and polyclonal PLS3 antibody was used at 1:2,000 for immunoblotting. Secondary anti-mouse or anti-rabbit antibodies conjugated with horseradish peroxidase were used at 1:2,000 and incubated with the membrane for 1 h at room temperature. […]

HeLa cells [2] = assay: Mitochondrial potential by MitoTracker Green and flow cytometry in HeLa cells; format: cell-based; conditions: 50 μM Z-VAD or 5 μM CsA 30 min, then AD198 16 h
Procedure: Cells were incubated with MitoTracker Green at 37° C. for 20 min followed by flow cytometry analysis. The histogram represents the means±standard deviations from three independent experiments.

[3] = monomeric boronic acid; pH range of 2-6.5; cited from earlier work
[4] = U937 cells, 2 and 4 hours, PMA 200 nM, bortezomib 100 ng/ml
[5] = U937 cells, bortezomib 16 hours

Compound: COC(=O)CC(NC(=O)OC(C)(C)C)C(=O)CF (stereo not drawn) [BAF, Boc-D(Ome)-FMK]
- effect on bortezomib-induced 32 kD PKC-δ band (PKC-δ; bortezomib (50 ng/ml) and BAF (30 μM), 16 hours): disappearance of this 32 kD band

Compound: Cn1c2ccccc2c2c3c(c4c5ccccc5n(CCC#N)c4c21)CNC3=O [Go6976]
- effect on bortezomib-induced apoptosis (TUNEL) (U937 cells; Go6976 (200 nM) with bortezomib, 16 hours): could not prevent bortezomib-induced apoptosis

Compound: CCCCCCCCCCCCCC(=O)O[C@@H]1[C@@H](C)[C@@]2(O)[C@@H](C=C(CO)C[C@]3(O)C(=O)C(C)=C[C@@H]23)[C@@H]2C(C)(C)[C@]12OC(C)=O [PMA]
- PKC-δ protein level (PKC-δ; [4]): down-regulated PKC-δ
- PKC-δ localization after subcellular fractionation (PKC-δ; U937 cells, PMA (200 nM) 6, 9 and 12 hours): full-length PKC-δ and its degradation products in mitochondria

Compound: CC(NC(=O)C(NC(=O)OCc1ccccc1)C(C)C)C(=O)NC(CC(=O)O)C(=O)CF (stereo not drawn) [Z-VAD] (Cbz-Val-Ala-Asp-CH2F; configuration not given here)
- effect on AD198-induced apoptosis (HeLa cells [1]): suppressed
- effect on AD198-induced threonine phosphorylation of PLS3 (PLS3): not affected
- effect on AD198-induced mitochondrial permeability transition / loss of mitochondrial potential (HeLa cells [2]): could not block

Compound: CC(C)C[C@H](NC(=O)[C@H](Cc1ccccc1)NC(=O)c1cnccn1)B(O)O [bortezomib, [(1R)-3-methyl-1-[[(2S)-1-oxo-3-phenyl-2-[(pyrazinylcarbonyl)amino]propyl]amino]butyl] boronic acid]
- PKC-δ protein level (PKC-δ; [4]): induced an increase of PKC-δ
- 32 kD PKC-δ fragment (PKC-δ; [5]): new band at 32 kD
- PKC-δ protein level (PKC-δ; [5]): the level of PKC-δ decreased
- TUNEL positivity, time course (U937 cells; 6 hours): did not become TUNEL positive
- TUNEL positivity, time course (U937 cells; 16 h): strongly positive
- IC50 (U937 cells; Homo sapiens, U-937, U937 cells): 0.01 to 0.05 µg/mL (≈ 0.026 to 0.13 µM)
- concentration at which cells became TUNEL positive (U937 cells; U937 cells): 5 ng/mL
- apoptosis by TUNEL assays (U937 cells; bortezomib 5 ng/ml, 16 hours): 8.02%
- apoptosis by TUNEL assays (U937 cells; bortezomib 10 ng/ml, 16 hours): 19.85%
- apoptosis by TUNEL assays (U937 cells; bortezomib 50 ng/ml, 16 hours): 76.07%
- solubility in water [3]: 3300 to 3800 µg/mL

Compound: CC(=O)c1c(O)c(C)c(O)c(Cc2c(O)c3c(c(C(=O)/C=C/c4ccccc4)c2O)OC(C)(C)C=C3)c1O [rottlerin]
- TUNEL positive cells with addition of rottlerin (U937 cells; bortezomib 5 ng/ml + rottlerin (10 μM), 16 hours): 4.35%
- TUNEL positive cells with addition of rottlerin (U937 cells; bortezomib 10 ng/ml + rottlerin (10 μM), 16 hours): 8.55%
- TUNEL positive cells with addition of rottlerin (U937 cells; bortezomib 50 ng/ml + rottlerin (10 μM), 16 hours): 33.07%
